# Measurements taken from patent US12221422B2, “Compounds and their use for the treatment of alpha1-antitrypsin deficiency” (CENTESSA PHARMACEUTICALS (UK) LIMITED, priority 2018, dated 2025).
# Assays:
# Pharmacokinetics in rats = type: in vivo; conditions: rat, whole blood, Sprague Dawley rats
# Method: Compounds were administered to Sprague Dawley rats intravenously (2 mg/kg) or orally (10 mg/kg) by gavage. Whole blood diluted with water was prepared from these dosed animals over a time course up to 24 hours post dose to allow blood concentrations of drug to be measured by UPLC-MS/MS.
# human Z A1AT = human Z A1AT (Homo sapiens, UniProt P01009, E366K); experiment: Circulating human Z A1AT levels in huZ mice; type: in vivo, huZ mouse; parameters: from tissue; host or cells: huZ (PiZZ) transgenic mice, line Z11.03, C57Bl/6 background; made in liver, measured in plasma; conditions: huZ mice, 5, 15 or 50 mg/kg twice a day by oral gavage, 14 days, plasma days 12-14
# human Z A1AT, sequence (P01009 25-418 E366K): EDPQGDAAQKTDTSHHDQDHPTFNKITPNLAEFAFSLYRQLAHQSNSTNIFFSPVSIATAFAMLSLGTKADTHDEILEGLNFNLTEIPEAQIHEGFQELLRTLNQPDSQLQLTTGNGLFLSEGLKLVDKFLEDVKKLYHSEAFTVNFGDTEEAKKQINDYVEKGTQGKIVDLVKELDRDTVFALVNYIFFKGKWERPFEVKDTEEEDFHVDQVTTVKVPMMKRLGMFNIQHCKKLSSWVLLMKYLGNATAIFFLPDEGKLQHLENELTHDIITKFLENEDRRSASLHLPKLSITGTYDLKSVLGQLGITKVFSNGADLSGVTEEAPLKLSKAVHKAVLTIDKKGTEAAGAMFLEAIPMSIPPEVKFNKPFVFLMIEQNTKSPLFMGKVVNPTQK
# Text: The huZ mouse (also referred to as the PiZZ mouse) is a transgenic mouse strain that contains multiple copies of the Z variant of the human A1AT gene, developed by two separate groups Dycaico et al (Science (1988) 242:1409-12) and Carlson et al (J. Clin Invest (1989) 83:1183-90). PiZZ mice are on a C57Bl/6 background and express the human Z A1AT protein in liver tissue. The mice used in this study are from the progeny of Carlson and colleagues (transgenic line Z11.03). […]
# HuZ mice (n=4/group; male or female) with basal human A1AT plasma levels of between 200-600 μg/ml were treated with either vehicle or N,N-dimethyl-4-((6-oxopyrimidin-1(6H)-yl)methyl)benzamide at 5, 15 or 50 mg/kg twice a day by oral gavage for 14 consecutive days. […] Human Z A1AT levels in mouse plasma samples were measured by ELISA (Human Serpin A1/α1-antitrypsin duo set ELISA, R& D Systems, DY1268) per manufacturer's instructions.
# Briefly, a 96 well plate was coated with human A1AT capture antibody overnight at room temperature (1:180 dilution from stock, 100 μl final volume/well). […] After which, 50 μl stop solution (2M H2SO4) was added and optical density (OD) of each well was read at 450 nm with 570 nm blank subtracted from each well using a microplate reader. […]
# The effect of N,N-dimethyl-4-((6-oxopyrimidin-1(6H)-yl)methyl)benzamide on circulating levels of human Z A1AT was assessed in a huZ mouse model. […]
smiles,measurement,setting,value
"CN(C)C(=O)c1ccc(Cn2cnccc2=O)cc1 [N,N-dimethyl-4-((6-oxopyrimidin-1(6H)-yl)methyl)benzamide]",half-life,"Pharmacokinetics in rats; iv 2 mg/kg or oral 10 mg/kg, read-out: Half-life in blood (t1/2)",55 min
same,clearance,"Pharmacokinetics in rats; iv 2 mg/kg or oral 10 mg/kg, read-out: Observed clearance",10.6 mL/min/kg
same,Vd,"Pharmacokinetics in rats; iv 2 mg/kg or oral 10 mg/kg, read-out: Volume of distribution (Vz)",0.84 L/kg
same,bioavailability,"Pharmacokinetics in rats; oral 10 mg/kg vs iv 2 mg/kg, read-out: Oral Bioavailability (F)",104%
same,Cmax,"Pharmacokinetics in rats; oral 10 mg/kg, blood",5330 ng/mL
same,AUC(0-inf),"Pharmacokinetics in rats; oral 10 mg/kg, blood, read-out: Oral AUCINF",16500 ng·h/mL
same,circulating human Z A1AT compared to baseline levels,human Z A1AT,stimulates secretion of human Z A1AT compared to baseline levels in huZ mice in a dose dependent manner
